Laboratory results as given in patent publication US20140072990A1, “FLUORESCENT SUBSTRATE FOR DETECTION OF ENZYMATIC ACTIVITY OF NITRILE-RELATED ENZYME” (The University of Tokyo, priority 2010, published 2014).
Where two headings read alike, the source gives them in different places.

Columns and labels:
[1] = Fluorescence quantum yield measurement of compounds 1 to 6; assay type: physicochemical
Procedure: Compounds 1 to 6 obtained above were measured for their fluorescence.
Compounds 1 to 6 were also measured for their fluorescence quantum yield (Φfl). […] With respect to compounds 5 and 6, it should be noted that their fluorescence quantum yields were calculated as values in isolated form based on the concentration ratio determined by HPLC.

[2] = system: Rhodococcus sp. strain SK92-derived nitrilase; assay: Nitrilase-catalyzed reaction with cell-free extract, detection with fluorescence imager (Example 3); assay type: biochemical; conditions: 30° C., 1 hour, excited at 488 nm, detected at 530 nm; JM109/pUC118 control showed no change
Procedure: 10 μL of sodium phosphate buffer (pH 7.0), 75 μL of sterilized water and 5 μL of 0.01 mM nitrile fluorescent substrate (compound 2: dissolved in 10% DMSO) were mixed together and pre-incubated at 30° C. The cell-free extract prepared above (10 μL) was added to initiate the reaction. After the reaction at 30° C. for 1 hour, the mixture was transferred to a 96-well microplate and fluorescence was detected with a fluorescence imager (BioRad Pharos FX molecular Imager, excited at 488 nm, detected at 530 nm).
A recombinant E. coli, JM109/pSK002, which highly expresses Rhodococcus sp. strain SK92-derived nitrilase (JP 8-173169 A) was inoculated into 1 ml of a 50 ampicillin-containing LB medium (1% Bactotryptone, 0.5% Bactoyeast extract, 0.5% NaCl) and pre-cultured at 37° C. for 7 hours. The culture broth was taken in a volume of 0.1 ml and added to 100 ml of the same medium (containing 50 μg/ml ampicillin and 1 mM IPTG), followed by shaking culture at 37° C. for 15 hours. The resulting culture broth was centrifuged (3,700×g, 10 minutes, 4° C.) to collect the cells, which were then washed with 10 mM sodium phosphate buffer (pH 7.0) and suspended in the same buffer. As a control strain, JM109/pUC118 was used. […]
In the same manner as shown in Example 2, the reaction was performed using a nitrile fluorescent substrate (compound 2), followed by detection with a fluorescence imager.

[3] = system: Rhodococcus sp. strain SK92-derived nitrilase; assay: Nitrilase-catalyzed reaction for 24 hours, observation by the naked eye (Example 4); assay type: biochemical; conditions: 0.1 mM substrate stock, JM109/pUC118 control showed little change in color
Procedure: 10 μL of sodium phosphate buffer (pH 7.0), 75 μL of sterilized water and 5 μL of 0.1 mM nitrile fluorescent substrate (compound 2: dissolved in DMSO) were mixed together and pre-incubated at 30° C. A cell-free extract (10 μL), which had been prepared in the same manner as shown in Example 3, was added to initiate the reaction.

[4] = biological target: T1, Rhodococcus rhodochrous strain J1-derived nitrile hydratase (Rhodococcus rhodochrous, UniProt P21219+P21220); assay: Nitrile hydratase-catalyzed reaction with cell-free extract, detection with fluorescence imager (Example 2); assay type: biochemical; conditions: 30° C., 1 hour, excited at 488 nm, detected at 530 nm; vector pK4 control showed no change
T1 construct: made in house; host or cells: Rhodococcus rhodochrous ATCC12674 transformed with pSJ034; crude cell-free extract
T1 sequence (P21219 1-203): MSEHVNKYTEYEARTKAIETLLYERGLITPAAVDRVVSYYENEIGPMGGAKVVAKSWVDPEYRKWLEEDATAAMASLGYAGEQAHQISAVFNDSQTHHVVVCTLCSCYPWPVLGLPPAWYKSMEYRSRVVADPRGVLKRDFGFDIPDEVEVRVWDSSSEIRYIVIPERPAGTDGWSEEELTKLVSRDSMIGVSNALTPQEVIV
T1 sequence (P21220 1-229): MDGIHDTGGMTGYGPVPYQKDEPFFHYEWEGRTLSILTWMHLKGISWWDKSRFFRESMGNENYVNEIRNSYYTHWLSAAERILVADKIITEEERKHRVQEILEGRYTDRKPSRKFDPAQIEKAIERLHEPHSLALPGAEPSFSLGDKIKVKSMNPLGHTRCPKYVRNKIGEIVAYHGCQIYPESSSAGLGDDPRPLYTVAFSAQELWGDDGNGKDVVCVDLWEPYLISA
Excerpt: Plasmid pSJ034 designed to constitutively express Rhodococcus rhodochrous strain J1-derived nitrile hydratase in Rhodococcus bacterial cells was introduced into Rhodococcus rhodochrous strain ATCC12674. pSJ034 has been prepared from plasmid pSJ023 as described in the specification of JP 10-337185 A. pSJ023 was deposited as a transformant, R. rhodochrous ATCC12674/pSJ023 (FERM BP-6232), with the International Patent Organism Depositary, the National Institute of Advanced Industrial Science and Technology.
Rhodococcus rhodochrous strain ATCC12674 was transformed with plasmid pSJ034 to prepare ATCC12674/pSJ034. The strain 12674 was also transformed with vector pK4 for use in a control experiment.
The colony was cultured as follows. The colony was inoculated into a kanamycin (50 mg/L)-containing MYK medium (10 ml) and pre-cultured at 30° C. for 24 hours. […]
10 μL of sodium phosphate buffer (pH 7.0), 75 μL of sterilized water and 5 μL of 0.01 mM nitrile fluorescent substrate (compound 2: dissolved in 10% DMSO) were mixed together and pre-incubated at 30° C. […] After the reaction at 30° C. for 1 hour, the mixture was transferred to a 96-well microplate and fluorescence was detected with a fluorescence imager (BioRad Pharos FX molecular Imager, excited at 488 nm, detected at 530 nm).

[5] = biological target: T1, Rhodococcus rhodochrous strain J1-derived nitrile hydratase; assay: Detection of nitrile hydratase-catalyzed enzymatic reaction using fluorometer (Example 5); assay type: biochemical; conditions: for increase in fluorescence in comparison with a solution not containing the cell-free extract: crude nitrile hydratase solution, 37° C., 5 h after addition, 490 nm excitation light
Procedure: Nitrile hydratase solution was prepared in the same manner as shown in Example 2.
(§1) 178 μL of sodium phosphate buffer (200 mM, pH 7.3) and 2 μL of 1 mM fluorescent substrate (compound 7 or compound 2: dissolved in DMSO) were mixed together and pre-incubated at 37° C. The cell-free extract prepared above (20 μL) was added to initiate the reaction. Sampling was conducted at one hour intervals by addition of 380 μL sodium phosphate buffer (200 mM, pH 7.3) to 20 μL reaction solution, and each sample was measured for its fluorescence using a spectrophotofluorometer, model F-4500 (Hitachi High-Technologies Corporation, Japan). The measurement was performed with 490 nm excitation light under the following conditions: a slit width of 2.5 nm/2.5 nm, a photomultiplier voltage of 700 V and 37° C.

[6] = Fluorescence quantum yield, absolute PL quantum yield measurement system (Quantaurus-QY); assay type: physicochemical; conditions: 0.2 μM, 0.02% DMSO, 200 mM sodium phosphate buffer pH 7.3, 470 nm excitation light
Procedure: The absorption spectra and fluorescence quantum yields of the compounds were measured as follows.
A 1 mM solution of compound 7 in DMSO was prepared and this solution was added to 200 mM sodium phosphate buffers of pH 2 to 12 to prepare 1 μM sample solutions containing 0.1% DMSO. These sample solutions were measured for their absorption spectra between 300 nm and 600 nm with an ultraviolet and visible spectrophotometer UV-2450 (Shimadzu Corporation, Japan). In addition, a 0.2 μM sample solution of compound 7 containing 0.02% DMSO in 200 mM sodium phosphate buffer (pH 7.3) was prepared and measured for its fluorescence quantum yield using an absolute PL quantum yield measurement system, Quantaurus-QY (Hamamatsu Photonics K.K., Japan), under irradiation with 470 nm excitation light.

[7] = biological target: T1, Rhodococcus rhodochrous strain J1-derived nitrile hydratase; assay: HPLC analysis on nitrile hydratase-catalyzed reaction solution (Example 5); assay type: biochemical; conditions: 37° C., 5 hours, absorption at 500 nm
Procedure: (§2) After reaction at 37° C. for 5 hours as described above, the reaction solution was analyzed by HPLC under the following conditions. • Model: fluid delivery pump PU-2080 (JASCO) • Column: Inertsil ODS-3 (4.6×250 mm) column (GL Sciences Inc.) • Solvent: eluted with a linear gradient from 75% acetonitrile/0.1% TFA in water (0 min) to 15% acetonitrile/0.1% TFA in water (30 min) • Detection: detector MD-2010 (JASCO), monitored by absorption at 500 nm

[8] = system: Rhodococcus sp. strain SK92-derived nitrilase; assay: Detection of nitrilase-catalyzed enzymatic reaction using fluorometer (Example 6); assay type: biochemical
Procedure: as §1
Nitrilase solution was prepared in the same manner as shown in Example 3.
Detection was conducted in accordance with the procedures shown in Example 5, provided that the compound used in the experiment was compound 7 and the enzyme solutions used were a cell-free extract derived from JM109/pSK002 (containing nitrilase) and a cell-free extract derived from the above control strain JM109/pTrc99A (having no nitrilase activity).

[9] = system: Rhodococcus sp. strain SK92-derived nitrilase; assay: HPLC analysis on nitrilase-catalyzed reaction solution (Example 6); assay type: biochemical
Procedure: as §2
Nitrilase activity was analyzed in accordance with the procedures shown in Example 4.

[10] = Stability of product in nitrile hydratase-catalyzed reaction solution by HPLC (Example 7); assay type: in vitro ADME; conditions: absorption at 500 nm
Procedure: (§3) Product stability after enzymatic reaction was studied by HPLC analysis.
(§4) For HPLC analysis of the nitrile hydratase-catalyzed reaction solution (160 μL), the above pump, column, solvent conditions and detector were used to monitor absorption at 500 nm. On the other hand, for analysis of the nitrilase-catalyzed reaction solution (160 μL), the same procedure as used for analysis of the nitrile hydratase-catalyzed reaction solution was repeated to monitor absorption at 500 nm.

[11] = Stability of product in nitrilase-catalyzed reaction solution by HPLC (Example 7); assay type: in vitro ADME; conditions: absorption at 500 nm
Procedure: as §3, §4

[12] = calculated as values in isolated form based on the concentration ratio determined by HPLC (mixture of compounds 5 and 6)

COC(=O)c1ccc(C#N)cc1-c1c2ccc(=O)cc-2oc2cc(O)ccc12 [compound 1]
Fluorescence quantum yield (Φf1) [1]: 0.007

COC(=O)c1cc(C#N)ccc1-c1c2ccc(=O)cc-2oc2cc(O)ccc12 [compound 2]
change in intensity of fluorescence with nitrilase-expressing recombinant cell-free extract [2]: significant increase in the intensity of fluorescence
fluorescence observed by the naked eye with nitrilase-expressing recombinant cell-free extract [3]: significant green fluorescence was observed
change in intensity of fluorescence with nitrile hydratase-expressing recombinant cell-free extract [4]: significant increase in the intensity of fluorescence
Fluorescence quantum yield (Φf1) [1]: 0.161
increase in fluorescence in comparison with a solution not containing the cell-free extract [5]: ~3.9 fold
fluorescence quantum yield [6]: 0.172

COC(=O)c1ccc(C(N)=O)cc1-c1c2ccc(=O)cc-2oc2cc(O)ccc12 [compound 3]
Fluorescence quantum yield (Φf1) [1]: 0.018

COC(=O)c1cc(C(N)=O)ccc1-c1c2ccc(=O)cc-2oc2cc(O)ccc12 [compound 4]
Fluorescence quantum yield (Φf1) [1]: 0.397

COC(=O)c1ccc(C(=O)O)cc1-c1c2ccc(=O)cc-2oc2cc(O)ccc12 [compound 5]
Fluorescence quantum yield (Φf1) [1, 12]: 0.0729

COC(=O)c1cc(C(=O)O)ccc1-c1c2ccc(=O)cc-2oc2cc(O)ccc12 [compound 6]
Fluorescence quantum yield (Φf1) [1, 12]: 0.565

N#Cc1ccc(-c2c3ccc(=O)cc-3oc3cc(O)ccc23)c(C(=O)OCc2ccc(Cl)cc2)c1 [compound 7, 5-cyanofluorescein-4-chlorobenzyl ester]
HPLC peak of substrate after nitrile hydratase-catalyzed reaction [7]: disappeared, while a peak of a new product generated by the enzymatic reaction appeared
increase in fluorescence in comparison with the absence of the cell-free extract ([8]; JM109/pSK002-derived cell-free extract (containing nitrilase), 5 h after addition): ~7.5 fold
increase in fluorescence with control cell-free extract ([8]; JM109/pTrc99A-derived cell-free extract (having no nitrilase activity)): little increase in its fluorescence
increase in fluorescence in comparison with a solution not containing the cell-free extract [5]: ~7.2 fold
increase in fluorescence relative to that of compound 2 ([5]; nitrile hydratase reaction, compound 7 versus compound 2): 1.5 fold
fluorescence quantum yield [6]: 0.154
HPLC peak of substrate after nitrilase-catalyzed reaction ([9]; JM109/pSK002-derived cell-free extract, absorption at 500 nm): disappeared, while a peak of a new product generated by the enzymatic reaction appeared
reaction product by HPLC with control cell-free extract ([9]; JM109/pTrc99A-derived cell-free extract): no reaction product was observed

NC(=O)c1ccc(-c2c3ccc(=O)cc-3oc3cc(O)ccc23)c(C(=O)OCc2ccc(Cl)cc2)c1 [compound 9, 5-CONH2 fluorescein 4-chlorobenzyl ester]
HPLC peak corresponding to ester hydrolysis product 5-CONH2 fluorescein [10]: not observed

O=C(O)c1ccc(-c2c3ccc(=O)cc-3oc3cc(O)ccc23)c(C(=O)OCc2ccc(Cl)cc2)c1 [compound 11]
HPLC peak corresponding to ester hydrolysis product 5-carboxylfluorescein [11]: not observed
